Activity calls are given as the source filed them. The calls are words filed in the database; no cut-off is given here.
Legend:
[1] = target: Kelch-like ECH-associated protein 1 (Homo sapiens) (UniProt Q14145); test: Binding affinity to human recombinant Keap1 Kelch domain expressed in Escherichia coli BL21 (DE3) by SPR assay
[2] = target: T1, Nuclear factor erythroid 2-related factor 2 (Homo sapiens) (UniProt Q16236); test: Activation of NRF2 in human AREc32 cells incubated for 24 hrs by luciferase reporter gene assay; assay type: cell-based
T1 sequence (whole entry): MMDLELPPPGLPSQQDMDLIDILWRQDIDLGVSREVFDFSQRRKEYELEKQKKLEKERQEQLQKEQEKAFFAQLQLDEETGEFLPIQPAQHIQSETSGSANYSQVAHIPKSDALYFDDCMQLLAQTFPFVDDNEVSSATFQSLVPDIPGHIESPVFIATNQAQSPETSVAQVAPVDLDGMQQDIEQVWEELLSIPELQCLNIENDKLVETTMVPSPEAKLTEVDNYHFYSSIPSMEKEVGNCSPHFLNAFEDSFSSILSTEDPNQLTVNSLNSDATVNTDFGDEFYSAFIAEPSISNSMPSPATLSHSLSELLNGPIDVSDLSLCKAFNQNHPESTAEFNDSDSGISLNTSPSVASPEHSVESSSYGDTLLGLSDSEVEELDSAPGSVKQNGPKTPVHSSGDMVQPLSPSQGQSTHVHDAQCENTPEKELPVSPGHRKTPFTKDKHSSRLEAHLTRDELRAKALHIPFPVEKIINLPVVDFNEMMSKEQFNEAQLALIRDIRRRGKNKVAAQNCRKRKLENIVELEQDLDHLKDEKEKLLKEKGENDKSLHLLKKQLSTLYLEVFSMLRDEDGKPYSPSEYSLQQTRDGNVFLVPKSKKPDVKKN

[3] = target: T2, Amine oxidase [flavin-containing] A (Homo sapiens, UniProt P21397)
T2 sequence (P21397 whole entry): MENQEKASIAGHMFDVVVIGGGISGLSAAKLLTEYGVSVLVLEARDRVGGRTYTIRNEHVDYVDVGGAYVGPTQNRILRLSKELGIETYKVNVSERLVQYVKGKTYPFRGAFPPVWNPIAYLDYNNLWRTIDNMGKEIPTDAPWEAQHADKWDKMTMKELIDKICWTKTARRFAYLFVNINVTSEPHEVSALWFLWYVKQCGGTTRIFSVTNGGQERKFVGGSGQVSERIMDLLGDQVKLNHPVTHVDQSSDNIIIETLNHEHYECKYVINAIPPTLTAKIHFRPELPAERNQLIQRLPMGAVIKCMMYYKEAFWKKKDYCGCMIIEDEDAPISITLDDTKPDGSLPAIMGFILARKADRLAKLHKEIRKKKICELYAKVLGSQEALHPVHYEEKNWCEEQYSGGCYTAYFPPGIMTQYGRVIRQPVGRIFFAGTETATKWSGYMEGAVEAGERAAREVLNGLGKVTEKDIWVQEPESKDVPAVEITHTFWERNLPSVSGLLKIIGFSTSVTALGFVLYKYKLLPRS
Description: Inhibition of human MAO-A using p-tyramine as substrate by Amplex Red reagent based fluorescence analysis

[4] = target: T3, Melatonin receptor type 1B (Homo sapiens, UniProt P49286); test: Displacement of [125l]-lodomelatonin from human MT2 receptor expressed in CHO cells incubated for 120 mins by scintillation counting analysis; assay type: cell-based
T3 sequence (P49286 whole entry): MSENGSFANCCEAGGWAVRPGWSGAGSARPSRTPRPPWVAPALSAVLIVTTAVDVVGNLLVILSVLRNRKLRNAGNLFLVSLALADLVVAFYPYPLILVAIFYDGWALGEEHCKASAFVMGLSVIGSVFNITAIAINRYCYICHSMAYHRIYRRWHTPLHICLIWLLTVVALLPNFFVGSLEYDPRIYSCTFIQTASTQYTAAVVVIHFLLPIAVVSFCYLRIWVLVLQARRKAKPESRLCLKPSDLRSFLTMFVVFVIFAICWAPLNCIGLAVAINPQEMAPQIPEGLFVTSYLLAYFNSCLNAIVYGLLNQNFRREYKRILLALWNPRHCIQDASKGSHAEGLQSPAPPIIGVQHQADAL

[5] = Antioxidant activity assessed as AAPH radical scavenging activity preincubated for 15 mins measured every min for 80 mins by ORAC-FL assay relative to trolox; assay type: functional
[6] = Displacement of [125l]-lodomelatonin from hamster brain cell QR2 incubated for 60 mins by scintillation counting analysis
[7] = target: T4, Polyunsaturated fatty acid 5-lipoxygenase (Homo sapiens, UniProt P09917); test: Inhibition of human 5-Lipoxygenase using H2DCFDA as substrate preincubated for 5 mins and measured by Spectrophotometric assay
T4 sequence (P09917 whole entry): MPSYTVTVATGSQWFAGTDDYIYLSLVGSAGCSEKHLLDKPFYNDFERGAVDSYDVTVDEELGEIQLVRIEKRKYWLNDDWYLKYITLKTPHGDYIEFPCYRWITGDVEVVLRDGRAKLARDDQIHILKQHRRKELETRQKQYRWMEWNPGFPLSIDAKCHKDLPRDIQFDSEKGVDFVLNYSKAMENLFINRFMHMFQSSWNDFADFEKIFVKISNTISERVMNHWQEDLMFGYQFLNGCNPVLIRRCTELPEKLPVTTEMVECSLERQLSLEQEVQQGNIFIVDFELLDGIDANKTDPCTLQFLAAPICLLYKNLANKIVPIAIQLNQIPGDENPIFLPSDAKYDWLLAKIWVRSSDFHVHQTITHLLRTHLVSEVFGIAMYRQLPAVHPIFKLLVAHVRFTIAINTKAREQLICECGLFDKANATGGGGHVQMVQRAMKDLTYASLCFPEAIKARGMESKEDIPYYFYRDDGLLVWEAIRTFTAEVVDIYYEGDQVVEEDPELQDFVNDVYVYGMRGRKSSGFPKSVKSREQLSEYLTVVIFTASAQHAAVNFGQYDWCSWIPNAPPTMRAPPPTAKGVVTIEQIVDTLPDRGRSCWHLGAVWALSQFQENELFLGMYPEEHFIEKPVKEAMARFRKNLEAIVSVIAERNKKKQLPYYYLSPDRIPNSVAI

[8] = target: T5, Amine oxidase [flavin-containing] B (Homo sapiens, UniProt P27338)
T5 sequence (P27338 whole entry): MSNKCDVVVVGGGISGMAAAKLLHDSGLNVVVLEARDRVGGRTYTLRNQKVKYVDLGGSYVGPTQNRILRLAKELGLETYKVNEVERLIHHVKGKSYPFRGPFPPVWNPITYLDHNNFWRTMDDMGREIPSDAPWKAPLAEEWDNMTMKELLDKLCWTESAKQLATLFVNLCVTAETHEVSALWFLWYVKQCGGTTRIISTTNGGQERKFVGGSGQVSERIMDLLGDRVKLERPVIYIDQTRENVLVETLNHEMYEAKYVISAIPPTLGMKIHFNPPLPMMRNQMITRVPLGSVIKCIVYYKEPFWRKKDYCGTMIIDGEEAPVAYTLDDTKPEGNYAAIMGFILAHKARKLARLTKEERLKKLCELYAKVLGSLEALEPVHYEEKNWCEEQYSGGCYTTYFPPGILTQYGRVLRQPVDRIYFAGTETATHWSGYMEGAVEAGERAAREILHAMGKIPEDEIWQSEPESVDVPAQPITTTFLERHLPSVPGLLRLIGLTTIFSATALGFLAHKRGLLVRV
Description: Inhibition of human MAO-B using p-tyramine as substrate by Amplex Red reagent based fluorescence analysis

[9] = target: T6, Melatonin receptor type 1A (Homo sapiens, UniProt P48039); test: Displacement of [125l]-lodomelatonin from human MT1 receptor expressed in CHO cells incubated for 120 mins by scintillation counting analysis; assay type: cell-based
T6 sequence (P48039 whole entry): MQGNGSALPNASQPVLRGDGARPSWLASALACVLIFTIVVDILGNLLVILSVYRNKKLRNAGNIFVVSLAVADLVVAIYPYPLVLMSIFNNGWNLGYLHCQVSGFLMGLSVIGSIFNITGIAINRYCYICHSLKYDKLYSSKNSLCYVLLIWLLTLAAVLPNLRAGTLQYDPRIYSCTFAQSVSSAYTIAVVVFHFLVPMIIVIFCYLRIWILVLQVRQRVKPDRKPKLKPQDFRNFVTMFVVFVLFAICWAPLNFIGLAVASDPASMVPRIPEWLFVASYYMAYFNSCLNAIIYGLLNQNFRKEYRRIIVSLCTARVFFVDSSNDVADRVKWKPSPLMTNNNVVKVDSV

[10] = target: T6, Melatonin receptor type 1A; test: Displacement of [125l]-lodomelatonin from human MT1 receptor expressed in CHO cells incubated for 120 mins by scintillation counting analysis relative to control; assay type: cell-based
Cricetinae = test: Displacement of [125l]-lodomelatonin from hamster brain cell QR2 at 100 nM incubated for 60 mins by scintillation counting analysis relative to control; assay type: tissue-based
[11] = Permeability of compound by PAMPA-BBB assay

Kelch-like ECH-associated protein 1 (Homo sapiens), sequence (Q14145 whole entry, the tested form may be a part): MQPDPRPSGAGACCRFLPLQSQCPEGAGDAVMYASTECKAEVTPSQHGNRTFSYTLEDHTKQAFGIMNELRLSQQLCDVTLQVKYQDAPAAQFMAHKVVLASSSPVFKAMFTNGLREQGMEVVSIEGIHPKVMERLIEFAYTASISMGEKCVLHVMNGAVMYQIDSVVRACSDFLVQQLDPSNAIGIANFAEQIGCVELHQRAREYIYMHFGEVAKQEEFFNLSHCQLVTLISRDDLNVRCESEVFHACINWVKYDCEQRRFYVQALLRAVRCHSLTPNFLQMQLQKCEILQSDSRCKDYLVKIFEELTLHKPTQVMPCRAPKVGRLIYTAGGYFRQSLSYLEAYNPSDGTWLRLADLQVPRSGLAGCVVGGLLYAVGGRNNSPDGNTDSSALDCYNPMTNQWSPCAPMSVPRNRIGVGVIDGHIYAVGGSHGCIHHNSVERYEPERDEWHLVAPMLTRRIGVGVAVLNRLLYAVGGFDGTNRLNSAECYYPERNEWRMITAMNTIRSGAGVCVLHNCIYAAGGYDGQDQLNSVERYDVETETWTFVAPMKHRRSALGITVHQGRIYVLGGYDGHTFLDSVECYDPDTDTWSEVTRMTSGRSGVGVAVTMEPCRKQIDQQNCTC

In the case of COc1ccc2[nH]cc(/C=C/c3n[nH]c(=O)o3)c2c1, the Activity [1] is reported as “Active” and the CD [2] is reported as greater than 60 µM.

CNc1nnc(CCc2c[nH]c3ccc(OC)cc23)o1 showed an IC50 [3] greater than 50 µM, a Ki [4] of 0.11 µM and an Activity [5] of 1.8 equiv. The Ki [6] was 0.33 µM, the IC50 [7] was 60.6 µM and the IC50 [8] was 37 µM. The Ki [9] was 0.55 µM.

For C=CCNC(=O)/C=C/c1c[nH]c2ccc(OC)cc12, the Activity [1] was “inactive” and the CD ([2]; filed as activator) was 27.4 µM.

With C#CCNC(=O)/C=C/c1c[nH]c2ccc(OC)cc12 the Activity [1] was “Active” and the CD ([2]; filed as activator) was 1.76 µM.

With COc1ccc2[nH]cc(CC(C)c3n[nH]c(=O)o3)c2c1 (centres undefined) the Activity [1] was “inactive” and the CD [2] was greater than 30 µM.

In the case of COc1ccc2[nH]cc(CCNC(C)=O)c2c1 [MELATONIN], the Activity [5] is reported as less than 0.1 equiv and the Ki [6] is reported as 0.077 µM.

For COc1cc2cccc(/C=C/c3n[nH]c(=O)o3)c2cc1OC, the Ki [4] was 0.069 µM, the Activity [1] was “inactive” and the Activity [5] was less than 0.1 equiv. It also gave a CD [2] greater than 30 µM, a Ki [9] greater than 1 µM and an inhibition [10] of 63%.

Molecule COc1ccc2[nH]cc(CCc3nn(CC4CCCC4)c(=O)o3)c2c1 has an Activity [5] of 2.8 equiv.

COc1ccc2[nH]cc(CCc3nn(CCCc4ccccc4)c(=O)o3)c2c1 showed an Activity [5] of 2.7 equiv.

In the case of CCCCCCCn1nc(CCc2c[nH]c3ccc(OC)cc23)oc1=O, the Activity [5] is reported as 2.1 equiv.

In the case of C#CCn1nc(/C=C/c2c[nH]c3ccc(OC)cc23)oc1=O, the Activity [1] is reported as “Active” and the CD ([2]; filed as activator) is reported as 15.1 µM.

In the case of COc1ccc2cccc(/C=C/c3n[nH]c(=O)o3)c2c1, the CD [2] is reported as greater than 30 µM.

For COc1ccc2[nH]cc(CCc3nn(CC4CCC4)c(=O)o3)c2c1, the Activity [5] was 2.2 equiv.

In the case of CCCCCCn1nc(CCc2c[nH]c3ccc(OC)cc23)oc1=O, the Activity [5] is reported as 3 equiv.

With CCCn1nc(CCc2c[nH]c3ccc(OC)cc23)oc1=O the Activity [1] was “inactive” and the Activity ([2]; filed as activator) was 2.3 equiv.

Work on C[S+]([O-])CCCCN=C=S (centres undefined) yielded a CD ([2]; filed as activator) of 0.54 µM.

With COc1ccc2c(c1)C(/C=C/c1n[nH]c(=O)o1)=CCC2 the CD [2] was greater than 30 µM.

Molecule COc1ccc2[nH]cc(CCc3n[nH]c(=O)o3)c2c1 has an inhibition (Cricetinae) of 5%, an Activity [5] of 2.7 equiv and a Ki [6] greater than 0.1 µM. For the same molecule, the Papp [11] was less than 20 nm/s.

Source: ChEMBL document CHEMBL4765258 (Eur J Med Chem, 2020)
